Active and inactive are the calls of the source. The rule behind the calls is not given here.
How the values were obtained:
[1] = tested on: MDA-MB-231; test: Cytotoxicity against human MDA-MB-231 cells assessed as reduction in cell viability incubated for 3 days by methylene blue staining based spectrophotometric analysis; assay type: functional; details: MDA-MB-231, 72 h, time 3 day
[2] = Drug localization in human HeLa cell vacuole incubated for 1 hr by TAMRA/Hoechst dye based fluorescent live cell imaging analysis; assay type: ADME, subcellular
[3] = Drug localization in human HeLa cell nucleus incubated for 1 hr by TAMRA/Hoechst dye based fluorescent live cell imaging analysis; assay type: ADME, subcellular
[4] = tested on: NCI-H522; test: Cytotoxicity against human NCI-H522 cells assessed as reduction in cell viability incubated for 3 days by methylene blue staining based spectrophotometric analysis; assay type: functional; details: NCI-H522, 72 h, time 3 day
[5] = tested on: NCI-H522; test: Induction of ferroptosis in human NCI-H522 cells assessed as cell viability at 6.93 uM incubated for 3 days in presence of liproxstatin-1 by methylene blue staining based spectrophotometric analysis relative to control; assay type: functional; details: NCI-H522, 72 h, time 3 day, read-out: Activity
[6] = tested on: HT-1080; test: Cytotoxicity against human HT-1080 cells assessed as reduction in cell viability incubated for 3 days by methylene blue staining based spectrophotometric analysis; assay type: functional; details: HT-1080, 72 h, time 3 day
[7] = tested on: NCI-H522; test: Induction of ferroptosis in human NCI-H522 cells assessed as reduction in cell viability at 6.93 uM incubated for 3 days in presence of liproxstatin-1 by methylene blue staining based spectrophotometric analysis; assay type: functional; details: time 3.0 day
[8] = tested on: NCI-H522; test: Induction of ferroptosis in human NCI-H522 cells assessed as reduction in cell viability at 7.8 uM incubated for 3 days in presence of liproxstatin-1 by methylene blue staining based spectrophotometric analysis; assay type: functional; details: time 3.0 day
[9] = tested on: NCI-H522; test: Induction of ferroptosis in human NCI-H522 cells assessed as cell viability at 7.8 uM incubated for 3 days in presence of liproxstatin-1 by methylene blue staining based spectrophotometric analysis relative to control; assay type: functional; details: NCI-H522, 72 h, time 3 day, read-out: Activity
[10] = target: T1, Peroxiredoxin-4 (Homo sapiens) (UniProt Q13162); test: Inhibition of PRDX4 (unknown origin)
T1 sequence (whole entry): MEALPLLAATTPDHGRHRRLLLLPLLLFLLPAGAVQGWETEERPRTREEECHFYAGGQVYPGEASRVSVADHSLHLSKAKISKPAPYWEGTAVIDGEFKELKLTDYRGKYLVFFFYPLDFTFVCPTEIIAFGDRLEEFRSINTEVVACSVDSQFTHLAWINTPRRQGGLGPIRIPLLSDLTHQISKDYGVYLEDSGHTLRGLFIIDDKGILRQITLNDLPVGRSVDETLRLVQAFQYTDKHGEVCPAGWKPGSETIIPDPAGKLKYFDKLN

[11] = tested on: OVCAR-3; test: Cytotoxicity against human OVCAR-3 cells assessed as reduction in cell growth at 10 uM; assay type: functional, cell-based
[12] = tested on: NCI-H522; test: Cytotoxicity against human NCI-H522 cells overexpressing GFP-tagged RV assessed as reduction in cell viability incubated for 3 days by methylene blue staining based spectrophotometric analysis; assay type: functional; details: NCI-H522, 72 h, time 3 day
[13] = tested on: 786-0; test: Cytotoxicity against human 786-0 cells assessed as reduction in cell growth at 10 uM; assay type: functional, cell-based
[14] = tested on: UO-31; test: Cytotoxicity against human UO-31 cells assessed as reduction in cell growth by measuring cell viability at 10 uM relative to control; assay type: functional
[15] = tested on: HL-60; test: Cytotoxicity against human HL-60 cells assessed as reduction in cell growth at 10 uM; assay type: functional, cell-based
[16] = tested on: K562; test: Cytotoxicity against human K562 cells assessed as reduction in cell growth at 10 uM; assay type: functional, cell-based
[17] = tested on: MOLT-4; test: Cytotoxicity against human MOLT-4 cells assessed as reduction in cell growth at 10 uM; assay type: functional, cell-based
[18] = tested on: OVCAR-5; test: Cytotoxicity against human OVCAR-5 cells assessed as reduction in cell growth at 10 uM; assay type: functional, cell-based
[19] = tested on: NCI-H522; test: Cytotoxicity against human NCI-H522 cells assessed as reduction in cell viability at 1 uM incubated for 3 days by methylene blue staining based spectrophotometric analysis; assay type: functional; details: time 3.0 day
[20] = tested on: NCI/ADR-RES; test: Cytotoxicity against human NCI-ADR-RES cells assessed as reduction in cell growth at 10 uM; assay type: functional, cell-based
[21] = tested on: MEF; test: Cytotoxicity against mouse MEF cells assessed as reduction in cell viability at 1 uM incubated for 3 days by methylene blue staining based spectrophotometric analysis; assay type: toxicity; details: 72 h, time 3 day
[22] = tested on: NCI-H522; test: Cytotoxicity against human NCI-H522 cells overexpressing GFP-tagged SLC7A11 assessed as reduction in cell viability incubated for 3 days by methylene blue staining based spectrophotometric analysis; assay type: functional; details: NCI-H522, 72 h, time 3 day
[23] = tested on: NCI-H522; test: Induction of ferroptosis in human NCI-H522 cells assessed as cell viability incubated for 3 days in presence of liproxstatin-1 by methylene blue staining based spectrophotometric analysis relative to control; assay type: functional; details: time 3 day
[24] = target: Glucose-6-phosphate 1-dehydrogenase (Homo sapiens) (UniProt P11413); test: Inhibition of G6PD in human HCT-116 cells using G6P as substrate at 100 uM incubated for 20 mins followed by G6P and […]; assay type: cell-based
[25] = tested on: IGROV-1; test: Cytotoxicity against human IGROV-1 cells assessed as reduction in cell growth by measuring cell viability at 10 uM relative to control; assay type: functional
[26] = tested on: CCRF-CEM; test: Cytotoxicity against human CCRF-CEM cells assessed as reduction in cell growth at 10 uM; assay type: functional, cell-based
[27] = target: Glucose-6-phosphate 1-dehydrogenase (Homo sapiens) (UniProt P11413); test: Inhibition of G6PD in human HCT-116 cells using G6P as substrate assessed as reduction in enzyme activity by measuring absorbance at 100 uM incubated for 20 mins followed by G6P and […]; assay type: cell-based
[28] = tested on: RXF 393; test: Cytotoxicity against human RXF 393 cells assessed as reduction in cell growth at 10 uM; assay type: functional, cell-based
[29] = tested on: NCI-H522; test: Induction of ferroptosis in human NCI-H522 cells assessed as increase in intracellular lipid peroxidation accumulation at 0.51 uM incubated for 6 hrs by C11 BODIPY 581/591 staining based flow cytometry; assay type: functional, cell-based
[30] = tested on: 786-0; test: Cytotoxicity against human 786-0 cells assessed as reduction in cell growth by measuring cell viability at 10 uM relative to control; assay type: functional
[31] = tested on: SR; test: Cytotoxicity against human SR cells assessed as reduction in cell growth at 10 uM; assay type: functional, cell-based
[32] = tested on: SK-OV-3; test: Cytotoxicity against human SK-OV-3 cells assessed as reduction in cell growth at 10 uM; assay type: functional, cell-based
[33] = tested on: ACHN; test: Cytotoxicity against human ACHN cells assessed as reduction in cell growth at 10 uM; assay type: functional, cell-based
[34] = tested on: RPMI-8226; test: Cytotoxicity against human RPMI-8226 cells assessed as reduction in cell growth at 10 uM; assay type: functional, cell-based
[35] = tested on: NCI-H522; test: Induction of ferroptosis in human NCI-H522 cells assessed as cell death at 0.51 uM incubated for 3 days by methylene blue staining based spectrophotometric analysis relative to control; assay type: functional; details: time 3 day
[36] = tested on: U2OS; test: Cytotoxicity against human U2OS cells assessed as reduction in cell viability incubated for 3 days by methylene blue staining based spectrophotometric analysis; assay type: functional; details: 72 h, time 3 day
[37] = tested on: WI-38; test: Cytotoxicity against human WI-38 cells assessed as reduction in cell viability at 1 uM incubated for 3 days by methylene blue staining based spectrophotometric analysis; assay type: toxicity; details: wi-38, 72 h, time 3 day
[38] = tested on: NCI-H522; test: Induction of ferroptosis in human NCI-H522 cells incubated for 3 days in presence of liproxstatin-1 by methylene blue staining based spectrophotometric analysis; assay type: functional, cell-based; details: time 3.0 day
[39] = tested on: NCI-H522; test: Induction of cell death in human NCI-H522 cells at 10 uM incubated for 3 to 4 hrs by live cell imaging analysis relative to control; assay type: functional; details: time 3-4 hrs
[40] = tested on: SN12C; test: Cytotoxicity against human SN12C cells assessed as reduction in cell growth at 10 uM; assay type: functional, cell-based
[41] = tested on: OVCAR-4; test: Cytotoxicity against human OVCAR-4 cells assessed as reduction in cell growth at 10 uM; assay type: functional, cell-based
[42] = tested on: HT-1080; test: Cytotoxicity against human HT-1080 cells assessed as reduction in cell viability at 1 uM incubated for 3 days by methylene blue staining based spectrophotometric analysis; assay type: functional; details: time 3.0 day
[43] = tested on: OVCAR-8; test: Cytotoxicity against human OVCAR-8 cells assessed as reduction in cell growth at 10 uM; assay type: functional, cell-based
[44] = target: Phospholipid hydroperoxide glutathione peroxidase GPX4 (Homo sapiens) (UniProt P36969); test: Inhibition of recombinant GPX4 (unknown origin) at 100 uM incubated for 60 mins followed by NADPH addition
[45] = tested on: CAKI-1; test: Cytotoxicity against human CAKI-1 cells assessed as reduction in cell growth at 10 uM; assay type: functional, cell-based
[46] = tested on: UO-31; test: Cytotoxicity against human UO-31 cells assessed as reduction in cell growth at 10 uM; assay type: functional, cell-based
[47] = tested on: TK-10; test: Cytotoxicity against human TK-10 cells assessed as reduction in cell growth at 10 uM; assay type: functional, cell-based

Chain of Glucose-6-phosphate 1-dehydrogenase (Homo sapiens) (P11413 whole entry): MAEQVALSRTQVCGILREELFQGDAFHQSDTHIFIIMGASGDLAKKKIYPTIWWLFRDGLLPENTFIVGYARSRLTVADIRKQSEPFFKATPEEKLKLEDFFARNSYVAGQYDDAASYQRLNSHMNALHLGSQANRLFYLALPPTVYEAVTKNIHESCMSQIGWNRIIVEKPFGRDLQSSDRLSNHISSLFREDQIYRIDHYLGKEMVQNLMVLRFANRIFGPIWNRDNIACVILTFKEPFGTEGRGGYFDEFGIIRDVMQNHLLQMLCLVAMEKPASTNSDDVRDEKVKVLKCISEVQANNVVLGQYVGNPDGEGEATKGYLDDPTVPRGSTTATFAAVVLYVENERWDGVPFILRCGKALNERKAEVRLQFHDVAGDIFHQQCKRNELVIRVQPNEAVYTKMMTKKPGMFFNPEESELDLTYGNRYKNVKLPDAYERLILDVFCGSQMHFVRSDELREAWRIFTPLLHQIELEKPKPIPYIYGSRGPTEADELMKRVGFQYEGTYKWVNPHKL
Chain of Phospholipid hydroperoxide glutathione peroxidase GPX4 (Homo sapiens) (P36969 whole entry): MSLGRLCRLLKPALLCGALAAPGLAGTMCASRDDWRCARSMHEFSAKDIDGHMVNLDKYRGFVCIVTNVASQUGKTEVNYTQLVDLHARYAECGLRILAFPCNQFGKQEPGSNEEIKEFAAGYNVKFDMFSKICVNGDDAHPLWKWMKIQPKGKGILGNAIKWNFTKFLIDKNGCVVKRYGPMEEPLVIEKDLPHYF

C#CCO/N=C1\CC(c2csc(C#C)n2)=C(C)C1O (stereo not drawn)
CC50 [1]: 2700 nM
Drug uptake [2]: Active
Drug uptake [3]: Active
CC50 [4]: 2310 nM
viability at 6.93 µM [5]: 75%
CC50 [6]: 1170 nM
Activity [7]: inactive

C#CCCC(=O)Nc1ccc(C(=O)c2ccc(NC(=O)CO/N=C3\CC(c4csc(C#C)n4)=C(C)C3O)cc2)cc1 (stereo not drawn)
Activity [8]: inactive
CC50 [1]: 1330 nM
CC50 [4]: 2600 nM
CC50 [6]: 1200 nM
viability at 7.8 µM [9]: 45%

C#Cc1nc(C2=C(C)C(OC(C)=O)/C(=N/OC(C)=O)C2)cs1 (stereo not drawn)
inhibition [10]: inactive
Activity [11]: inactive
CC50 [12]: 260 nM
Activity [13]: inactive
CC50 [1]: 230 nM
Activity [14]: -95%
Activity [15]: inactive
Activity [16]: inactive
Activity [17]: inactive
Activity [18]: inactive
Activity [19]: Active
Activity [20]: inactive
Activity [21]: Toxic
CC50 [4]: 170 nM
CC50 [22]: 1590 nM
Activity [23]: 60%
inhibition [24]: Active
Activity [25]: -95%
CC50 [6]: 140 nM
Activity [26]: inactive
Activity [27]: 0.18
Activity [28]: inactive
Activity [29]: Active
Activity [30]: -95%
Activity [31]: inactive
Activity [32]: inactive
Activity [33]: inactive
Activity [34]: inactive
Activity [35]: ~60%
CC50 [36]: 7260 nM
Activity [37]: Toxic
Activity [38]: Active
Activity [39]: 50%
Activity [40]: inactive
Activity [41]: inactive
Activity [42]: Active
Activity [43]: inactive
inhibition [44]: Active
Activity [45]: inactive
Activity [46]: inactive
Activity [47]: inactive

From ChEMBL document CHEMBL5614438, “CETZOLE Analogs as Potent Ferroptosis Inducers and Their Target Identification Using Covalent/Affinity Probes” (J Med Chem, 2024)
